Results reported in ChEMBL document CHEMBL1155458, “Synthesis, inhibitory activity of cholinesterases, and neuroprotective profile of novel 1,8-naphthyridine derivatives” (J Med Chem, 2010).

Key:
SH-SY5Y [1] = test: Neuroprotective activity in human SH-SY5Y cells assessed as protection against okadaic acid-induced cell death at 1 uM after 24 hrs by MTT assay; format: functional
SH-SY5Y [2] = test: Neuroprotective activity in human SH-SY5Y cells assessed as protection against rotenone/oligomycin A-induced cell death at 1 uM after 24 hrs by LDH release assay; format: functional
[3] = target: T1, Acetylcholinesterase (Bos taurus) (UniProt P23795); test: Displacement of propidium iodide from AChE in bovine erythrocytes at 10 uM after 15 mins by fluorescence plate reader; format: cell-based
T1 sequence (whole entry): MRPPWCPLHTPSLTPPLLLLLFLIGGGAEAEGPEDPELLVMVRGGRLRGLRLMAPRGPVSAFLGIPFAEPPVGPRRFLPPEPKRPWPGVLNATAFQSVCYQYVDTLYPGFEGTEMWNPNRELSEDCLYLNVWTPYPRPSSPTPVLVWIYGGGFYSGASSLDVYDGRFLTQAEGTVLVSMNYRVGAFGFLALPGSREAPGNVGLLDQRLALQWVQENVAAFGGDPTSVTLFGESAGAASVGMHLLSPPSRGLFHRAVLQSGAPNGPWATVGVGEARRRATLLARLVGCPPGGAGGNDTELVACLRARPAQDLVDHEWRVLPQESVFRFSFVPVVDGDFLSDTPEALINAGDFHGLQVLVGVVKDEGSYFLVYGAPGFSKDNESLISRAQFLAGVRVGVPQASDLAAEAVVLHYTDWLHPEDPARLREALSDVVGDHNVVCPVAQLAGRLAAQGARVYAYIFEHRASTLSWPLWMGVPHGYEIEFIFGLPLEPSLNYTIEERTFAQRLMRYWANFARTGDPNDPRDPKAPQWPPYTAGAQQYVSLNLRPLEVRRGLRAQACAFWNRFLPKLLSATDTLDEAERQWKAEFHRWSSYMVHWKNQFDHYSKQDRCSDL

SH-SY5Y [4] = test: Cytotoxicity against human SH-SY5Y cells assessed as LDH release at 1 uM after 24 hrs by spectrophotometry (reference value: 17.7%); format: cell-based
Acetylcholinesterase [5] = target: T2, Acetylcholinesterase (Homo sapiens, UniProt P22303)
Description: Inhibition of AChE in human erythrocytes by Ellman's method

Cholinesterase = Cholinesterase (Equus caballus, UniProt P81908)
Description: Inhibition of equine serum BuChE by Ellman's method

Acetylcholinesterase [6] = target: Acetylcholinesterase (Electrophorus electricus, UniProt O42275)
Description: Inhibition of electric eel AChE by Ellman's method

Acetylcholinesterase [7] = target: T3, Acetylcholinesterase (Bos taurus, UniProt P23795); test: biochemical
T3 sequence (P23795 whole entry): T1 sequence (whole entry)
Description: Displacement of propidium iodide from AChE in bovine erythrocytes after 15 mins by fluorescence plate reader

Rattus norvegicus [8] = species: Rattus norvegicus; test: Prevention of okadaic acid-induced inhibition of PP2A in rat brain cortex assessed as increase in inorganic phosphorus release after 1 hr by malachite green assay relative to control; format: tissue-based
Hippocampus [9] = test: Neuroprotective activity in isolated rat brain hippocampal slices assessed as protection against oxygen and glucose deprivation-induced cell death after 24 hrs by MTT assay; format: functional, tissue-based
Hippocampus [10] = test: Neuroprotective activity in isolated rat brain hippocampal slices assessed as protection against oxygen and glucose deprivation-induced cell death at 30 uM after 24 hrs by MTT assay; format: functional
SH-SY5Y [11] = test: Neuroprotective activity in human SH-SY5Y cells assessed as protection against amyloid beta(1-42)-induced cell death after 24 hrs by MTT assay; format: functional, cell-based
Rattus norvegicus [12] = species: Rattus norvegicus; test: Prevention of okadaic acid-induced inhibition of PP2A in rat brain cortex assessed as increase in inorganic phosphorus release at 1 uM after 1 hr by malachite green assay relative to control; format: tissue-based; design: scale not given: the % may be the effect or the level left
Acetylcholinesterase [13] = target: T2, Acetylcholinesterase; test: Inhibition of AChE (unknown orign) by Lineweaver-Burke plot
SH-SY5Y [14] = test: Neuroprotective activity in human SH-SY5Y cells assessed as protection against amyloid beta(1-42)-induced cell death at 10 uM after 24 hrs by MTT assay; format: functional
Rattus norvegicus [15] = species: Rattus norvegicus; test: Prevention of okadaic acid-induced inhibition of PP2A in rat brain cortex assessed as increase in inorganic phosphorus release at 10 uM after 1 hr by malachite green assay relative to control; format: tissue-based; design: scale not given: the % may be the effect or the level left
SH-SY5Y [16] = test: Neuroprotective activity in human SH-SY5Y cells assessed as protection against amyloid beta(1-42)-induced cell death at 1 uM after 24 hrs by MTT assay; format: functional
[17] = target: T1, Acetylcholinesterase (Bos taurus); conditions: 1 mM
Description: Displacement of propidium iodide from AChE in bovine erythrocytes at 1 mM after 15 mins by fluorescence plate reader

Acetylcholinesterase (Electrophorus electricus, UniProt O42275), sequence (O42275 whole entry): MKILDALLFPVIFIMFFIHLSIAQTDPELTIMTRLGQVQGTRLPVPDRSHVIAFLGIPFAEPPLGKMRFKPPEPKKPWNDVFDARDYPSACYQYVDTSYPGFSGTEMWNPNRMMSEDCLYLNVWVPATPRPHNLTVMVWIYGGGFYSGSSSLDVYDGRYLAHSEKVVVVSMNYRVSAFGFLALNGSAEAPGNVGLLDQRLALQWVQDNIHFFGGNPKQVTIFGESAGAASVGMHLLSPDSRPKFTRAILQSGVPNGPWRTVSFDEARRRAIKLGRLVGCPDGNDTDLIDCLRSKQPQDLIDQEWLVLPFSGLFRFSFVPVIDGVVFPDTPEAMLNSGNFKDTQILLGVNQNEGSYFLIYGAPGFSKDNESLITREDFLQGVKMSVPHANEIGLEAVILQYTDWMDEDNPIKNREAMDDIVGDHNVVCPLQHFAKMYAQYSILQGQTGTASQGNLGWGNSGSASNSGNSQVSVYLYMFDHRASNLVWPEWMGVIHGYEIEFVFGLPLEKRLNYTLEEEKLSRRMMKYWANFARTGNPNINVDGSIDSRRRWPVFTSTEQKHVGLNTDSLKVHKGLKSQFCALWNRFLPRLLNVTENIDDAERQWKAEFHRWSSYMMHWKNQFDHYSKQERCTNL
T2 sequence (P22303 whole entry): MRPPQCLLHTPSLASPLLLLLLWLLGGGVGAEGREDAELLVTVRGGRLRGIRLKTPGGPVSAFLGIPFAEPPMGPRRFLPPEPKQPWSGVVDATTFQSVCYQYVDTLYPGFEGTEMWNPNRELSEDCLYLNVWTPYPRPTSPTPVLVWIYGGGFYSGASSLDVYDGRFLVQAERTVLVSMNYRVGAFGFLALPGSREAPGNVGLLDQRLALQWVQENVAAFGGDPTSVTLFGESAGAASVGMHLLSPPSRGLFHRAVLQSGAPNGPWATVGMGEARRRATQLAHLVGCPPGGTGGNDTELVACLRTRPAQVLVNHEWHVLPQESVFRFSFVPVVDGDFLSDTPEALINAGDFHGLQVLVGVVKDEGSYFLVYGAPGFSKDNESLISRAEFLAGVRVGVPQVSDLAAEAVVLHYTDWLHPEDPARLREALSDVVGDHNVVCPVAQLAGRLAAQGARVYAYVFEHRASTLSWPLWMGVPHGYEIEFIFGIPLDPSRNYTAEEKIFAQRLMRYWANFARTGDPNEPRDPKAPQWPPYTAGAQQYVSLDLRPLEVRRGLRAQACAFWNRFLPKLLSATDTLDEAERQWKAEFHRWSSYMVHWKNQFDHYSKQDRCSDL
Cholinesterase, sequence (P81908 whole entry): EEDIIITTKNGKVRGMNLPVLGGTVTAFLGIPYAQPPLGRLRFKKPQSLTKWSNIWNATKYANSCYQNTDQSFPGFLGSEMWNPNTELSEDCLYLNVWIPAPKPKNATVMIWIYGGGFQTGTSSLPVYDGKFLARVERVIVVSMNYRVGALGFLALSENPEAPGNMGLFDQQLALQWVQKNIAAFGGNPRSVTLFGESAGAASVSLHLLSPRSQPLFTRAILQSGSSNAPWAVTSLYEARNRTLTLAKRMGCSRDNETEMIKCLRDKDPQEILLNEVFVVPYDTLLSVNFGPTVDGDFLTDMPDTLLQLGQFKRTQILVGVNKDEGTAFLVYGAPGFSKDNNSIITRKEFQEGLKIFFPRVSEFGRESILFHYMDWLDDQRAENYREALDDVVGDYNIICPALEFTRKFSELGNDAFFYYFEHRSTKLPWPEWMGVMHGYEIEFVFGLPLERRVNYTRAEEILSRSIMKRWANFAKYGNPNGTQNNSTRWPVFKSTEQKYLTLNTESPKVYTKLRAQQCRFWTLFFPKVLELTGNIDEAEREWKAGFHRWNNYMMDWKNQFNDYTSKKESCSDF

Structure (SMILES)	Activity (SH-SY5Y [1])	Activity (SH-SY5Y [2])	inhibition [3]	Activity (SH-SY5Y [4])	IC50 (Acetylcholinesterase [5])	IC50 (Cholinesterase)	IC50 (Acetylcholinesterase [6])	IC50 (Acetylcholinesterase [7])	further results
COC(=O)c1cc2c(N)c3c(nc2nc1C)CCCC3	44.8%	25.8%	16%	11.6%	1000 nM	3400 nM	93 nM	93 nM	–
CCOC(=O)c1cc2c(N)c3c(nc2nc1C)CCCC3	75%	48.4%	10%	20.9%	–	–	–	60 nM	Activity (Rattus norvegicus [8]): Dose-dependent effect; Activity (Hippocampus [9]): Dose-dependent effect; EC50 (Hippocampus [9]): 6000 nM; Activity (Hippocampus [10]): 65.5%; Activity (SH-SY5Y [11]): Dose-dependent effect; Activity (Rattus norvegicus [12]): 77%; Ki (Acetylcholinesterase [13]): 24 nM; Activity (SH-SY5Y [14]): 10%; Activity (Rattus norvegicus [15]): 91%; Activity (SH-SY5Y [16]): 54%
COC(=O)c1cc2c(N)c3c(nc2nc1C)CCCCC3	38.7%	36.1%	11%	20.4%	2000 nM	490 nM	360 nM	360 nM	–
CCOC(=O)c1c(C)nc2nc3c(c(N)c2c1-c1ccccc1)CCCC3	22.1%	26.8%	–	–	–	–	800 nM	–	–
COC(=O)c1cc2c(N)c3c(nc2nc1C)CCC3	36.5%	37.5%	10%	22.1%	1900 nM	5000 nM	120 nM	120 nM	–
COc1ccc2[nH]cc(CCNC(C)=O)c2c1 [MELATONIN]	–	33.8%	–	–	–	–	–	–	–
CCOC(=O)c1cc2c(N)c3c(nc2nc1C)CCCCCC3	33.8%	32.6%	10%	12.7%	1800 nM	5300 nM	400 nM	400 nM	–
C=CC[N+](C)(C)c1ccc(CCC(=O)CCc2ccc([N+](C)(C)CC=C)cc2)cc1	–	–	–	–	–	–	–	–	inhibition [17]: 29%
COC(=O)c1cc2c(N)c3c(nc2nc1C)CCCCCC3	26.2%	42.3%	16%	21.6%	1800 nM	4070 nM	250 nM	250 nM	–
CC(=O)N[C@@H](CS)C(=O)O [ACETYLCYSTEINE]	–	33.4%	–	–	–	–	–	–	–
COc1ccc2c3c1O[C@H]1C[C@@H](O)C=C[C@@]31CCN(C)C2 [GALANTAMINE]	0%	–	–	–	–	–	–	–	–
CCOC(=O)c1cc2c(N)c3c(nc2nc1C)CCCCC3	28.9%	31.1%	10%	19.9%	2000 nM	2100 nM	310 nM	310 nM	–
CCOC(=O)c1cc2c(N)c3c(nc2nc1C)CCC3	39.5%	28.7%	20%	12.3%	2100 nM	39000 nM	350 nM	350 nM	–
C=C1[C@@H](O)[C@@H]2O[C@]3(CC[C@H](/C=C/[C@@H](C)[C@@H]4CC(C)=C[C@@]5(O[C@H](C[C@@](C)(O)C(=O)O)CC[C@H]5O)O4)O3)CC[C@H]2O[C@@H]1[C@@H](O)C[C@H](C)[C@H]1O[C@@]2(CCCCO2)CC[C@H]1C [OKADAIC ACID]	80.5%	–	–	–	–	–	–	–	–
